Experimental data published in US20240116985A1, “STAPLED PEPTIDES AND METHODS THEREOF” (priority 2020, published 2024).
Values after ≈ are worked out from the molar mass of the structure shown. Where two headings read alike, the source gives them in different places.

Key:
[1] = target: T1, full-length beta-Catenin (Uniprot ID P35222) (Homo sapiens, UniProt P35222); assay: Fluorescence polarization IC50 (beta-catenin / 5FAM-TCF4 10-53 competition); assay type: binding
T1 construct: 10 nM full-length beta-Catenin (Uniprot ID P35222)
T1 sequence (P35222 1-781): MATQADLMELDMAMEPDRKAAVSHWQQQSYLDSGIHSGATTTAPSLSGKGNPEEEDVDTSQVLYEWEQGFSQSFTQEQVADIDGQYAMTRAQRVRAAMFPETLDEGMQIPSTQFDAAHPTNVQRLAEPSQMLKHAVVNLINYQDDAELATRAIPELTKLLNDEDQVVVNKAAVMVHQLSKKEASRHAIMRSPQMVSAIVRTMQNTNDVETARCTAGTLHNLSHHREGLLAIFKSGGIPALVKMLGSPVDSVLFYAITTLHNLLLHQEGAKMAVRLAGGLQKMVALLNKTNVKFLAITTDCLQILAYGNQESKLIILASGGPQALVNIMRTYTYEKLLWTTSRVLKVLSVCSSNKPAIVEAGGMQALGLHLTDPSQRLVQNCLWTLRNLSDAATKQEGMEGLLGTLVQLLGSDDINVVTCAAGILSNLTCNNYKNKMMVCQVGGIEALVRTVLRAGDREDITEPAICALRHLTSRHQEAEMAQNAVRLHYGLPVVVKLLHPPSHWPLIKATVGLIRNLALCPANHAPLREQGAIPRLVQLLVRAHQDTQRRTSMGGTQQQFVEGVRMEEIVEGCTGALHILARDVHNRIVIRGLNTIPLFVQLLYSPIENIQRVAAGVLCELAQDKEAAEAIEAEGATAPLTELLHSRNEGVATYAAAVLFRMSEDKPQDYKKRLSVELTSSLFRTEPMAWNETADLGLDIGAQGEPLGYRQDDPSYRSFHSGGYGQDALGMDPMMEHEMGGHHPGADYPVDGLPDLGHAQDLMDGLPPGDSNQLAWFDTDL

CHI Log D procedure = assay type: physicochemical; conditions: for chromatographic logD: pH 7.4, CHI Log D
Solubility in PBS = assay type: physicochemical
Method in brief: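 HPLC quantitation of peptide remaining in the PBS supernatant after ultracentrifugation, referenced to a 50 μM solution in DMSO.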

Row | IC50 ([1]; read-out: beta-Catenin FP IC50) | chromatographic logD (CHI Log D procedure) | Solubility (Solubility in PBS; Solubility (uM)) | Solubility (Solubility in PBS) | IC50 ([1]; fluorescence polarization, beta-catenin, read-out: FP EC50) | CHI Log D (CHI Log D procedure; pH 7.4) | Structure (SMILES)
1 | 127 nM | – | – | 43 µM (≈ 84.3 µg/mL) | 127 nM | 2.87 | CC(=O)N1CCC[C@]12CC=CCCCC1(CCCC=CCCCCCC[C@@](C)(C(=O)N[C@@H](Cc3ccccc3Cl)C(=O)N[C@@H](Cc3csc4ccccc34)C(=O)N[C@@H](CCO)C(N)=O)NC(=O)[C@H](CO)NC(=O)[C@H](Cc3ccccc3)NC(=O)[C@H](C)NC(=O)[C@H](C)NC(=O)[C@H](CN(CC(=O)O)CC(F)(F)F)NC(=O)[C@H](CC(=O)O)NC1=O)NC(=O)[C@H](CC(C)(C)C)NC(=O)[C@H](CC(=O)O)NC2=O (stereo partly drawn) [I-998, Ac-PL3-Asp-Npg-B5-Asp-TfeGA-Ala-Ala-Phe-Ser-S8-2C1F-BztA-Hse-NH2]
2 | 38 nM | 2.54 | – | 10 µM (≈ 21.3 µg/mL) | – | – | CC(=O)N1CCC[C@]12CC=CCCCC1(CCCC=CCCCOC(=O)N3CC[C@@](C(=O)N[C@@H](Cc4ccccc4Cl)C(=O)N[C@@H](Cc4csc5ccccc45)C(=O)N[C@@H](CCC(N)=O)C(N)=O)(C3)NC(=O)[C@H](CC(N)=O)NC(=O)[C@H](Cc3ccccc3)NC(=O)[C@H](Cc3ccccc3)NC(=O)[C@H](C)NC(=O)[C@H](CN(CC(=O)O)CC(F)(F)F)NC(=O)[C@H](CC(=O)O)NC1=O)NC(=O)[C@H](CC(C)(C)C)NC(=O)[C@H](CC(=O)O)NC2=O (stereo partly drawn) [I-1003, Ac-PL3-Asp-Npg-B5-Asp-TfeGA-Ala-Phe-Phe-Asn-PyrS2-2C1F-BztA-Gln-NH2]

Continued, molecule first:

Row | Structure (SMILES) | IC50 ([1]; read-out: beta-Catenin FP IC50) | chromatographic logD (CHI Log D procedure) | Solubility (Solubility in PBS; Solubility (uM)) | Solubility (Solubility in PBS) | IC50 ([1]; fluorescence polarization, beta-catenin, read-out: FP EC50) | CHI Log D (CHI Log D procedure; pH 7.4)
3 | CC(=O)N1CCC[C@]12CC=CCCCC1(CCCC=CCCCOC(=O)N3CC[C@@](C(=O)N[C@@H](Cc4ccccc4Cl)C(=O)N[C@@H](Cc4csc5ccccc45)C(=O)N[C@@H](CCO)C(N)=O)(C3)NC(=O)[C@H](Cc3ccccc3)NC(=O)[C@H](Cc3ccccc3)NC(=O)[C@H](C)NC(=O)[C@H](C)NC(=O)[C@H](CN(CC(=O)O)CC(F)(F)F)NC(=O)[C@H](CC(=O)O)NC1=O)NC(=O)[C@H](CC(C)(C)C)NC(=O)[C@H](CC(=O)O)NC2=O (stereo partly drawn) [I-992, Ac-PL3-Asp-Npg-B5-Asp-TfeGA-Ala-Ala-Phe-Phe-PyrS2-2C1F-BztA-Hse-NH2] | 59 nM | 2.56 | 12 µM (≈ 24.8 µg/mL) | – | – | –
4 | CC(=O)N1CCC[C@]12CC=CCCCC1(CCCC=CCCCCCC[C@@](C)(C(=O)N[C@@H](Cc3ccccc3Cl)C(=O)N[C@@H](Cc3csc4ccccc34)C(=O)N[C@@H](CCC(N)=O)C(N)=O)NC(=O)[C@H](CC(C)C)NC(=O)[C@H](Cc3ccccc3)NC(=O)[C@H](C)NC(=O)[C@H](C)NC(=O)[C@H](CN(CC(=O)O)CC(F)(F)F)NC(=O)[C@H](CC(=O)O)NC1=O)NC(=O)[C@H](CC(C)(C)C)NC(=O)[C@H](CC(=O)O)NC2=O (stereo partly drawn) [I-994, Ac-PL3-Asp-Npg-B5-Asp-TfeGA-Ala-Ala-Phe-Leu-S8-2C1F-BztA-Gln-NH2] | 121 nM | 3.21 | – | 10 µM (≈ 20.1 µg/mL) | – | –
5 | CC(=O)N1CCC[C@]12CC=CCCCC1(CCCC=CCCCCCC[C@@](C)(C(=O)N[C@@H](Cc3ccccc3Cl)C(=O)N[C@@H](Cc3csc4ccccc34)C(=O)N[C@@H](CCC(N)=O)C(N)=O)NC(=O)[C@H](CO)NC(=O)[C@H](Cc3ccccc3)NC(=O)[C@H](C)NC(=O)[C@H](C)NC(=O)[C@H](CN(CC(=O)O)CC(F)(F)F)NC(=O)[C@H](CC(=O)O)NC1=O)NC(=O)[C@H](CC(C)(C)C)NC(=O)[C@H](CC(=O)O)NC2=O (stereo partly drawn) [I-995, Ac-PL3-Asp-Npg-B5-Asp-TfeGA-Ala-Ala-Phe-Ser-S8-2C1F-BztA-Gln-NH2] | 55 nM | 2.8 | 34 µM (≈ 67.6 µg/mL) | – | – | –
6 | CC(=O)N1CCC[C@]12CC=CCCCC1(CCCC=CCCCCCC[C@@](C)(C(=O)N[C@@H](Cc3ccccc3Cl)C(=O)N[C@@H](Cc3csc4ccccc34)C(=O)N[C@@H](CCO)C(N)=O)NC(=O)[C@H](CC(C)C)NC(=O)[C@H](Cc3ccccc3)NC(=O)[C@H](C)NC(=O)[C@H](C)NC(=O)[C@H](CN(CC(=O)O)CC(F)(F)F)NC(=O)[C@H](CC(=O)O)NC1=O)NC(=O)[C@H](CC(C)(C)C)NC(=O)[C@H](CC(=O)O)NC2=O (stereo partly drawn) [I-997, Ac-PL3-Asp-Npg-B5-Asp-TfeGA-Ala-Ala-Phe-Leu-S8-2C1F-BztA-Hse-NH2] | 154 nM | 3.42 | – | 10 µM (≈ 19.9 µg/mL) | – | –
